# Where two headings read alike, the source gives them in different places.
# Key:
# [1] = Cytotoxicity in HeLa cells (ATP content, ATPlite kit); assay type: cell-based; settings: human
# Method: (§1) Black 384-well clear-bottom microtiter plates (Corning, Amsterdam, The Netherlands) were filled via acoustic drop ejection using the echo liquid handler (Labcyte, Sunnyvale, California). 200 nL of compound stock solutions (100% DMSO) were transferred to the assay plates. 9 serial 4-fold dilutions of compound were made, creating per quadrant the same compound concentration. The assay was initiated by adding 10 µL of culture medium to each well (RPMI medium without phenol red, 10% FBS-heat inactivated, 0.04% gentamycin (50 mg/mL). All addition steps are done by using a multidrop dispenser (Thermo Scientific, Erembodegem, Belgium). Next, rgRSV224 virus (MOI = 1) diluted in culture medium was added to the plates. rgRSV224 virus is an engineered virus that includes an additional GFP gene (Hallak LK, Spillmann D, Collins PL, Peeples ME. Glycosaminoglycan sulfation requirements for respiratory syncytial virus infection; Journal of virology (2000), 74(22), 10508-13) and was in-licensed from the NIH (Bethesda, MD, USA). Finally, 20 µL of a HeLa cell suspension (3,000 cells/well) were plated. Medium, virus- and mock-infected controls were included in each test. The wells contain […] DMSO per volume. Cells were incubated at 37° C. in a 5% CO2 atmosphere. Three days post-virus exposure, viral replication was quantified by measuring GFP expression in the cells by an in house developed MSM laser microscope (Tibotec, Beerse, Belgium). The EC50 was defined as the 50% inhibitory concentration for GFP expression. In parallel, compounds were incubated for three days in a set of white 384-well microtiter plates (Corning) and the cytotoxicity of compounds in HeLa cells was determined by measuring the ATP content of the cells using the ATPlite kit (Perkin Elmer, Zaventem, Belgium) according to the manufacturer’s instructions. The CC50 was defined as the 50% concentration for cytotoxicity.
# rgRSV224 virus = test: Antiviral activity: rgRSV224 (GFP) replication in HeLa cells; assay type: cell-based, respiratory syncytial virus (RSV)
# Method: as §1
# [2] = human respiratory syncytial virus, HeLa, 72 h, read-out: RSV HELA EC50, HeLa cells, rgRSV224 MOI = 1, GFP expression three days post-virus exposure, averaged data of several repeat experiments
# [3] = read-out: RSV HELA EC50, HeLa cells, rgRSV224 MOI = 1, GFP expression three days post-virus exposure, averaged data of several repeat experiments
SMILES,CC50 at 3 days ([1]; TOX HELA CC50) [nM],EC50 (rgRSV224 virus; [2]) [nM],EC50 (rgRSV224 virus; [3]) [nM],CC50 at 3 days ([1]; CC50) [nM],"EC50 (rgRSV224 virus; human respiratory syncytial virus, HeLa, comparison table 5.3, antiviral RSV assay of Example 5.1) [nM]"
"COc1cc(C(=O)NCC(O)(c2nc(-c3ccc(F)cc3)cc(C(C)(C)O)c2F)C(F)(F)F)cc2cc(C)nnc12 (racemic) [compound 279, (RS)Methoxy-3-Methyl-N-(3,3,3-Trifluoro-2-(3-Fluoro-6-(4-Fluorophenyl)-4-(2-Hydroxypropan-2-yl)Pyridin-2-yl)-2-Hydroxypropyl)Cinnoline-6-Carboxamide]",16000,47,,,
"COc1cc(C(=O)NC[C@](O)(c2cc(C(C)(C)O)c(F)c(-c3ccc(F)cc3)n2)C2CC2(C)C)cc2cc(C)nnc12 (single isomer, unassigned) [compound 294, N-((-)(2,2-dimethylcyclopropyl)(5-fluoro-6-(4-fluorophenyl)-4-(2-hydroxypropanyl)pyndmyl)hydroxyethyl)-8-methoxy-3-methylcmnoline-6-carboxamide]",13000,4.9,,,
"COc1cc(C(=O)NC[C@@](O)(c2cc(C(C)(C)O)c(F)c(-c3ccc(F)cc3)n2)C2CC2(C)C)cc2cc(C)nnc12 (single isomer, unassigned) [compound 295, N-((+)(2,2-dimethylcyclopropyl)(5-fluoro-6-(4-fluorophenyl)-4-(2-hydroxypropanyl)pyridinyl)hydroxyethyl)-8-methoxy-3-methylcinnoline-6-carboxamide]",12000,180,,,
"COc1cc(C(=O)NC[C@](O)(c2cc(C(C)(C)O)c(F)c(-c3ccc(F)cc3)n2)C2C[C@H]2F)cc2cc(C)nnc12 (single isomer, unassigned) [compound 300, N-((*S)(5-Fluoro-6-(4-Fluorophenyl)-4-(2-Hydroxypropanyl)Pyridinyl)((1*S,2*R)Fluorocyclopropyl)Hydroxyethyl)-8-Methoxy-3-Methylcinnoline-6-Carboxamide]",27000,0.7,,,
"COc1cc(C(=O)NC[C@@](O)(c2cc(C(C)(C)O)c(F)c(-c3ccc(F)cc3)n2)C2C[C@@H]2F)cc2cc(C)nnc12 (single isomer, unassigned) [compound 301, N-((*R)(5-Fluoro-6-(4-Fluorophenyl)-4-(2-Hydroxypropanyl)Pyridinyl)((1*R,2*S)Fluorocyclopropyl)Hydroxyethyl)-8-Methoxy-3-Methylcinnoline-6-Carboxamide]",22000,336,,,
"COc1cc(C(=O)NC[C@](O)(c2cc(C(C)(C)O)c(F)c(-c3ccc(F)cc3)n2)C2C[C@@H]2F)cc2cc(C)nnc12 (single isomer, unassigned) [compound 302, N-((*S)(5-Fluoro-6-(4-Fluorophenyl)-4-(2-Hydroxypropanyl)Pyridinyl)((1*S.2*S)Fluorocyclopropyl)Hydroxyethyl)-8-Methoxy-3-Methylcinnoline-6-Carboxamide]",> 25000,1.2,,,
"COc1cc(C(=O)NC[C@@](O)(c2cc(C(C)(C)O)c(F)c(-c3ccc(F)cc3)n2)C2C[C@H]2F)cc2cc(C)nnc12 (single isomer, unassigned) [compound 303, N-((*R)(5-Fluoro-6-(4-Fluorophenyl)-4-(2-Hydroxypropanyl)Pyridinyl)((l*R, 2*R)Fluorocyclopropyl)Hydroxyethyl)-8-Methoxy-3-Methylcinnoline-6-Carboxamide]",23000,295,,,
"COc1cc(C(=O)NCC(O)(c2cc(C(C)(C)O)c(F)c(-c3ccc(F)cc3)n2)C(F)F)cc2cc(C)cnc12 (single isomer, unassigned; (+)) [compound 203, (+)-N-{3,3-Difluoro-2-[5-Fluoro-6-(4-Fluorophenyl)-4-(2-Hydroxypropan-2-yl)Pyridin-2-yl]-2-Hydroxypropyl}-8-Methoxy-3-Methylquinoline-6-Carboxamide]",43000,,480,,
"COc1cc(C(=O)NCC(O)(c2cc(C(C)(C)O)c(F)c(-c3ccc(F)cc3)n2)C(F)F)cc2cc(C)c(F)nc12 (single isomer, unassigned; (+)) [compound 213, (+)-N-{3,3-Difluoro-2-[5-Fluoro-6-(4-Fluorophenyl)-4-(2-Hydroxypropan-2-yl)Pyridin-2-yl]-2-Hydroxypropyl}-2-Fluoro-8-Methoxy-3-Methylquinoline-6-Carboxamide]",31000,,520,,
"COc1cc(C(=O)NCC(O)(c2cc(C(C)(C)O)c(F)c(-c3ccc(F)cc3)n2)C(F)F)cc2cc(C)nnc12 (single isomer, unassigned; (+)) [compound 249, (+)-N-{3,3-Difluoro-2-[5-Fluoro-6-(4-Fluorophenyl)-4-(2-Hydroxypropan-2-yl)Pyridin-2-yl]-2-Hydroxypropyl}-8-Methoxy-3-Methylcinnoline-6-Carboxamide]",35000,,> 1250,,
"COc1cc(C(=O)NCC(O)(c2cc(C(C)(C)NC(C)=O)c(F)c(-c3ccc(F)cc3)n2)C(F)(F)F)cc2cc(C)nnc12 (single isomer, unassigned; (-)) [compound 235, (-)-N-{2-[4-(2-Acetamidopropan-2-yl)-5-Fluoro-6-(4-Fluorophenyl)Pyridin-2-yl]-3,3,3-Trifluoro-2-Hydroxypropyl}-8-Methoxy-3-Methylcinnoline-6-Carboxamide]",25000,0.62,,,
"COc1cc(C(=O)NCC(O)(c2cc(C(C)(C)O)c(F)c(-c3ccc(C4CC4)cc3)n2)C2CC2)cc2cc(C)nnc12 (single isomer, unassigned; (-)) [compound 254, (-)-N-{2-Cyclopropyl-2-[6-(4-Cyclopropylphenyl)-5-Fluoro-4-(2-Hydroxypropan-2-yl)Pyridin-2-yl]-2-Hydroxyethyl}-8-Methoxy-3-Methylcinnoline-6-Carboxamide]",15000,3.5,,,
"COc1cc(C(=O)NCC(O)(c2cc(C(C)(C)O)c(F)c(-c3cccc(F)c3)n2)C2CC2)cc2cc(C)nnc12 (single isomer, unassigned; (-)) [compound 255, (-)-N-{2-Cyclopropyl-2-[5-Fluoro-6-(3-Fluorophenyl)-4-(2-Hydroxypropan-2-yl)Pyridin-2-yl]-2-Hydroxyethyl}-8-Methoxy-3-Methylcinnoline-6-Carboxamide]",44000,0.81,,,
"Cc1cc2cc(C(=O)NCC(O)(c3cc(C(C)(C)O)c(F)c(-c4ccc(F)cc4)n3)C3CC3)cc(OC(F)F)c2nn1 (single isomer, unassigned; (-)) [compound 260, (-)-N-{2-Cyclopropyl-2-[5-Fluoro-6-(4-Fluorophenyl)-4-(2-Hydroxypropan-2-yl)Pyridin-2-yl]-2-Hydroxyethyl}-8-(Difluoromethoxy)-3-Methylcinnoline-6-Carboxamide]",19000,1.6,,,
"Cc1cc2cc(C(=O)NCC(O)(c3cc(C(C)(C)O)c(Cl)c(-c4ccc(F)cc4)n3)C(F)(F)F)cc(OC(F)(F)F)c2nn1 (single isomer, unassigned; (-)) [compound 261, (-)-N-{2-[5-Chloro-6-(4-Fluorophenyl)-4-(2-Hydroxypropan-2-yl)Pyridin-2-yl]-3,3,3-Trifluoro-2-Hydroxypropyl}-3-Methyl-8-(Trifluoromethoxy)Cinnoline-6-Carboxamide]",13000,13,,,
"COc1cc(C(=O)NCC(O)(c2cc(C(C)(C)O)c(F)c(-c3ccc(F)cc3)n2)[C@H]2CC2(F)F)cc2cc(C)nnc12 (stereo in doubt) [compound 319, N-((*R)-2,2-Difluorocyclopropyl)-2-(5-Fluoro-6-(4-Fluorophenyl)-4-Hydroxypropan-2-yl)Pyridin-2-yl)-2-Hydroxyethyl)-8-Methoxy-3-Methylcinnoline-6-Carboxamide]",6100,1.2,,,
"COc1cc(C(=O)NCC(O)(c2cc(C(C)(C)O)c(F)c(-c3ccc(F)cc3)n2)[C@@H]2CC2(F)F)cc2cc(C)nnc12 (stereo in doubt) [compound 320, N-((*S)-2,2-Difluorocyclopropyl)-2-(5-Fluoro-6-(4-Fluorophenyl)-4-Hydroxypropan-2-yl)Pyridin-2-yl)-2-Hydroxyethyl)-8-MZthoxy-3-Methylcinnoline-6-Carboxamide]",24000,1,,,
"CC(C)(O)c1cc([C@@](O)(CNC(=O)c2cc(OC3CC3)c3ncccc3c2)C(F)(F)F)nc(-c2ccc(F)cc2)c1F [Compound A, reference compound]",,,,37000,14
"Cc1cnc2c(OC3CC3)cc(C(=O)NC[C@](O)(c3cc(C(C)(C)O)c(F)c(-c4ccc(F)cc4)n3)C(F)(F)F)cc2c1 [compound 323, (-)Cyclopropoxy-3-Methyl-N-(3,3,3-Trifluoro-2-(5-Fluoro-6-(4-Fluorophenyl)-4-(2-Hydroxypropan-2-yl)Pyridin-2-yl)-2-Hydroxypropyl)Quinoline-6-Carboxamide]",,,3.8,,

# From US20230203004A1, “RSV INHIBITING 3-SUBSTITUTED QUINOLINE AND CINNOLINE DERIVATIVES” (Janssen Sciences Ireland Unlimited Company, priority 2020, published 2023)
